Results on 5 compounds are retold here after US4092415A, “Microorganism combatting quinoxaline-di-N-oxide carboxamides” (Ciba-Geigy Corporation, priority 1976, dated 1978).

What all share (type): in vivo
Experiment [1] deals with Strept. pyog. Aronson. Description: Intraperitoneally infected white mice, Strept. pyog. Aronson. The settings on record: Mus musculus; for ED50: with infection and 3 hours later, read-out: average effective dose/confidence interval; for ED20: value marked (ED 20). As to the method:
(§1) In tests carried out on white mice, the intraperitoneally infected animals are treated subcutaneously and perorally as follows:
(§2) The administration is effected in doses of 1 mg, 3 mg, 10 mg, 30 mg, 100 mg or 300 mg of active substance per kg of body weight initially simultaneously with the infection and a second time 3 hours later.

Experiment [2] relates to Salm. ty.-m. Description: Intraperitoneally infected white mice, Salm. ty.-m. The settings on record: Mus musculus, with infection and 3 hours later, read-out: average effective dose/confidence interval. The protocol: as §1, §2
The subject of experiment [3] is simultaneously infected hens. Description: Single peroral administration to simultaneously infected hens. The settings on record: Gallus gallus, po, single peroral administration by probang, simultaneous with infection. The text has this:
Single peroral administration by means of a probang to
simultaneously infected hens in mg of active substance

The test system of experiment [4] is Past. mult. Description: Intraperitoneally infected white mice, Past. mult. The settings on record: Mus musculus, with infection and 3 hours later, read-out: average effective dose/confidence interval. The protocol:
as §1, §2

The test system of experiment [5] is E. coli 205. Description: Intraperitoneally infected white mice, E. coli 205. Conditions: Escherichia coli, with infection and 3 hours later, read-out: average effective dose/confidence interval. As to the method: as §1, §2
Experiment [6] relates to Pseud. aerug. Description: Intraperitoneally infected white mice, Pseud. aerug. The settings on record: Mus musculus, with infection and 3 hours later, read-out: average effective dose/confidence interval. The protocol: as §1, §2
The test system of experiment [7] is Staph. aureus Smith. Description: Intraperitoneally infected white mice, Staph. aureus Smith. Conditions: Staphylococcus aureus, with infection and 3 hours later, read-out: average effective dose/confidence interval. As to the method: as §1, §2
Experiment [8] deals with piglets. Description: Demonstration of growth: piglets fed 28 days with medicated feed. Conditions: 50 ppm in feed. The text has this: A group of eight piglets (four .male. and four .female.) was fed for 28 days with a normal feed containing 17.6% of raw protein and 3.4% of crude fibres and to which 50 ppm of 1,4-dioxido-3-methyl-quinoxaline(2)-N-(2'-cyanoethyl)-carboxamide (Example 1) had been added. The average initial weight of the individual test animals was approx. 9 kg at the start of the test. At the conclusion of the test the animals were weighed individually and the feed consumption determined in groups. For control purposes, a parallel test following the same procedure was carried out using the same feed without the addition of active substance.

Like-named read-outs stand apart in the source and are kept apart here. Bounds are passed on as bounds.

In the case of `Cc1c(C(=O)NCC#N)[n+]([O-])c2ccccc2[n+]1[O-]` [A, 1,4-dioxido-3-methyl-quinoxaline(2)-N-(cyanomethyl)-carboxamide], the ED50 in experiment [1] (2 × po.) came out at 265 mg/kg; in experiment [2] (2 × po.), 4.2 mg/kg; in experiment [2] (2 × sc.), 3.9 mg/kg; in experiment [3] it was 2 mg/kg; in experiment [4] (2 × po.) it was 3.4 mg/kg; in experiment [4] (2 × sc.) it was 3 mg/kg. Moreover, the ED50 in experiment [5] (2 × po.) came to 3.5 mg/kg; in experiment [5] (2 × sc.), 3 mg/kg; in experiment [6] (2 × po.) it was 75 mg/kg; in experiment [6] (2 × sc.) it was 120 mg/kg; in experiment [7] (2 × po.), 12 mg/kg; in experiment [7] (2 × sc.), 10 mg/kg. Moreover, in experiment [1] (2 × sc.), the ED20 turned out to be 205 mg/kg.

On to `Cc1c(C(=O)NC(C)(C)C#N)[n+]([O-])c2ccccc2[n+]1[O-]` [B], for which the ED20 in experiment [1] (2 × po.) turned out to be 170 mg/kg; in experiment [1] (2 × sc.), 140 mg/kg. For the same compound, the ED50 was found to be 25 mg/kg in experiment [2] (2 × po.); 11 mg/kg in experiment [2] (2 × sc.); 5.1 mg/kg in experiment [4] (2 × po.); 3.2 mg/kg in experiment [4] (2 × sc.); 18 mg/kg in experiment [5] (2 × po.); 11 mg/kg in experiment [5] (2 × sc.). Moreover, the ED50 in experiment [6] (2 × po.) was > 300 mg/kg; in experiment [6] (2 × sc.) it was > 100 mg/kg; in experiment [7] (2 × po.), 18 mg/kg; in experiment [7] (2 × sc.), 16 mg/kg.

With `Cc1c(C(=O)NCCC#N)[n+]([O-])c2ccccc2[n+]1[O-]` [C, 1,4-Dioxido-3-methyl-quinoxaline(2)-N-(2'-cyanoethyl)-carboxamide], the ED50 in experiment [1] (2 × po.) was determined as 275 mg/kg; in experiment [1] (2 × sc.), 400 mg/kg; in experiment [2] (2 × po.), 11 mg/kg; in experiment [2] (2 × sc.) it was 10 mg/kg; in experiment [4] (2 × po.), 3.9 mg/kg; in experiment [4] (2 × sc.) it was 5.5 mg/kg. Also, the ED50 came to 6.6 mg/kg in experiment [5] (2 × po.); 5.5 mg/kg in experiment [5] (2 × sc.); 235 mg/kg in experiment [6] (2 × po.); 105 mg/kg in experiment [6] (2 × sc.); 27 mg/kg in experiment [7] (2 × po.); 18 mg/kg in experiment [7] (2 × sc.). For the same compound, the “Feed consumption index abs.” value in experiment [8] (average values, control 1.90) is recorded as 1.69 kg of feed consumed per kg of. For the same compound, the “Daily growth rate abs.” value in experiment [8] (average values, control 231 g) was determined as 305 g. Besides, the “Daily growth rate rel.” value in experiment [8] (control 100%) is 132%. Besides, the “Feed consumption index rel.” value in experiment [8] (control 100%) is on record as 88,9%.

In the case of `Cc1c(C(=O)NCCO)[n+]([O-])c2ccccc2[n+]1[O-]` [D, reference compound], the ED50 in experiment [1] (2 × po.) is 410 mg/kg; in experiment [1] (2 × sc.) it was 425 mg/kg; in experiment [2] (2 × po.), 13 mg/kg; in experiment [2] (2 × sc.) it was 10 mg/kg; in experiment [3], 5.3 mg/kg; in experiment [4] (2 × po.), 15 mg/kg. The ED50 in experiment [4] (2 × sc.) stood at 14 mg/kg; in experiment [5] (2 × po.) it was 10 mg/kg; in experiment [5] (2 × sc.), 9 mg/kg; in experiment [6] (2 × po.) it was 490 mg/kg; in experiment [6] (2 × sc.), 210 mg/kg; in experiment [7] (2 × po.) it was 60 mg/kg. In experiment [7] (2 × sc.), the ED50 amounted to 40 mg/kg.

For the compound `COC(=O)N/N=C/c1c[n+]([O-])c2ccccc2[n+]1[O-]` [E, reference compound], the ED50 is 25 mg/kg in experiment [2] (2 × po.); 140 mg/kg in experiment [2] (2 × sc.); 9 mg/kg in experiment [3]; ~30 mg/kg in experiment [4] (2 × po.); ~100 mg/kg in experiment [4] (2 × sc.); 30 mg/kg in experiment [5] (2 × po.). Also, the ED50 in experiment [5] (2 × sc.) is 300 mg/kg; in experiment [7] (2 × po.), 35 mg/kg; in experiment [7] (2 × sc.) it was 2500 mg/kg.
